According to patent publication US12538701B2, “Compound and organic light emitting device comprising the same” (LG Chem, Ltd., priority 2020, dated 2026):

Experiment: Solubility experiment in cyclohexanone
Format: physicochemical
Settings: normal temperature/pressure, whether 0.1 wt % or more was dissolved
Protocol: In order to confirm the solubility in the solvent used in the solution process of the compounds prepared in the Preparation Examples and the comparative compounds, each of them was dissolved in the solvent cyclohexanone (CHON) under normal temperature/pressure conditions, and it was confirmed whether 0.1 wt % or more was dissolved.

| SMILES | Solubility, Solvent CHON |
| --- | --- |
| c1ccc(-n2c3ccccc3c3cc(-c4ccc(N(c5ccc6ccccc6c5)c5ccc6c(ccc7c8ccc9c%10ccc%11cc(N(c%12ccc(-c%13ccc%14c(c%13)c%13ccccc%13n%14-c%13ccccc%13)cc%12)c%12ccc%13ccccc%13c%12)ccc%11c%10n(-c%10ccccc%10)c9c8n(-c8ccccc8)c67)c5)cc4)ccc32)cc1 [Compound 10] | ◯ (0.1 wt. % or more soluble) |
| CC1(C)c2cc(-c3cc4ccccc4o3)ccc2-c2ccc(N(c3ccccc3)c3ccc4c5c6ccc7c(c6ccc5n(-c5ccccc5)c4c3)c3ccc(N(c4ccccc4)c4ccc5c(c4)C(C)(C)c4cc(-c6cc8ccccc8o6)ccc4-5)cc3n7-c3ccccc3)cc21 [Comparative Compound I, reference compound] | X (0.1 wt. % or more insoluble) |
| CC(C)(C)c1ccc(N(c2ccc3cc(-c4cc5ccccc5o4)ccc3c2)c2ccc3c(ccc4c5cc6c(cc5n(-c5ccc(C(C)(C)C)cc5)c34)c3ccc4cc(N(c5ccc(C(C)(C)C)cc5)c5ccc7cc(-c8cc9ccccc9o8)ccc7c5)ccc4c3n6-c3ccc(C(C)(C)C)cc3)c2)cc1 [Compound 18] | ◯ (0.1 wt. % or more soluble) |
| c1ccc(-n2c3ccccc3c3cc(-c4ccc(N(c5ccc6ccccc6c5)c5ccc6c(ccc7c8cc9c(cc8n(-c8ccccc8)c67)c6ccc7cc(N(c8ccc(-c%10ccc%11c(c%10)c%10ccccc%10n%11-c%10ccccc%10)cc8)c8ccc%10ccccc%10c8)ccc7c6n9-c6ccccc6)c5)cc4)ccc32)cc1 [Compound 8] | ◯ (0.1 wt. % or more soluble) |
| CC1(C)c2ccccc2-c2ccc(-n3c4cc5c6ccc7cc(N(c8ccccc8)c8ccc9cc(-c%10cc%11ccccc%11o%10)ccc9c8)ccc7c6n(-c6ccc7c(c6)C(C)(C)c6ccccc6-7)c5cc4c4ccc5cc(N(c6ccccc6)c6ccc7cc(-c8cc9ccccc9o8)ccc7c6)ccc5c43)cc21 [Compound 16] | ◯ (0.1 wt. % or more soluble) |
| c1ccc(-n2c3ccccc3c3cc(-c4ccc(N(c5ccc6ccccc6c5)c5ccc6c(ccc7c8cc9c%10ccc%11cc(N(c%12ccc(-c%13ccc%14c(c%13)c%13ccccc%13n%14-c%13ccccc%13)cc%12)c%12ccc%13ccccc%13c%12)ccc%11c%10n(-c%10ccccc%10)c9cc8n(-c8ccccc8)c67)c5)cc4)ccc32)cc1 [Compound 7] | ◯ (0.1 wt. % or more soluble) |
| c1ccc(N(c2ccc3cc(-c4cc5ccccc5o4)ccc3c2)c2ccc3c(ccc4c5ccc6c7ccc8cc(N(c9ccccc9)c9ccc%10cc(-c%11cc%12ccccc%12o%11)ccc%10c9)ccc8c7n(-c7ccccc7)c6c5n(-c5ccccc5)c34)c2)cc1 [Compound 15] | ◯ (0.1 wt. % or more soluble) |
| [2H]c1c([2H])c([2H])c(-n2c3cc4c5ccc6cc(N(c7ccccc7)c7ccc8cc(-c9cc%10ccccc%10o9)ccc8c7)ccc6c5n(-c5c([2H])c([2H])c([2H])c([2H])c5[2H])c4cc3c3ccc4cc(N(c5ccccc5)c5ccc6cc(-c7cc8ccccc8o7)ccc6c5)ccc4c32)c([2H])c1[2H] [Compound 17] | ◯ (0.1 wt. % or more soluble) |
| c1ccc(N(c2ccc3cc(-c4cc5ccccc5o4)ccc3c2)c2ccc3c(ccc4c5c(ccc6c7ccc8cc(N(c9ccccc9)c9ccc%10cc(-c%11cc%12ccccc%12o%11)ccc%10c9)ccc8c7n(-c7ccccc7)c65)n(-c5ccccc5)c34)c2)cc1 [Compound 11] | ◯ (0.1 wt. % or more soluble) |
| Cc1cccc(N(c2ccc3c(ccc4c5ccc6c7ccc8cc(N(c9cccc(C)c9)c9cccc%10c9oc9ccccc9%10)ccc8c7n(-c7ccccc7)c6c5n(-c5ccccc5)c34)c2)c2cccc3c2oc2ccccc23)c1 [Compound 5] | ◯ (0.1 wt. % or more soluble) |
| c1ccc(N(c2ccc3cc(-c4cc5ccccc5o4)ccc3c2)c2ccc3c(ccc4c5cc6c7ccc8cc(N(c9ccccc9)c9ccc%10cc(-c%11cc%12ccccc%12o%11)ccc%10c9)ccc8c7n(-c7ccccc7)c6cc5n(-c5ccccc5)c34)c2)cc1 [Compound 12] | ◯ (0.1 wt. % or more soluble) |
| c1ccc(N(c2ccc3cc(-c4cc5ccccc5o4)ccc3c2)c2ccc3c(ccc4c5c6c7ccc8cc(N(c9ccccc9)c9ccc%10cc(-c%11cc%12ccccc%12o%11)ccc%10c9)ccc8c7n(-c7ccccc7)c6ccc5n(-c5ccccc5)c34)c2)cc1 [Compound 14] | ◯ (0.1 wt. % or more soluble) |
| c1ccc(-n2c3ccccc3c3cc(-c4ccc(N(c5ccc6ccccc6c5)c5ccc6c(ccc7c8c9c%10ccc%11cc(N(c%12ccc(-c%13ccc%14c(c%13)c%13ccccc%13n%14-c%13ccccc%13)cc%12)c%12ccc%13ccccc%13c%12)ccc%11c%10n(-c%10ccccc%10)c9ccc8n(-c8ccccc8)c67)c5)cc4)ccc32)cc1 [Compound 9] | ◯ (0.1 wt. % or more soluble) |
| Cc1cccc(N(c2ccc3c(ccc4c5c(ccc6c7ccc8cc(N(c9cccc(C)c9)c9cccc%10c9oc9ccccc9%10)ccc8c7n(-c7ccccc7)c65)n(-c5ccccc5)c34)c2)c2cccc3c2oc2ccccc23)c1 [Compound 1] | ◯ (0.1 wt. % or more soluble) |
| Cc1cccc(N(c2ccc3c(ccc4c5cc6c7ccc8cc(N(c9cccc(C)c9)c9cccc%10c9oc9ccccc9%10)ccc8c7n(-c7ccccc7)c6cc5n(-c5ccccc5)c34)c2)c2cccc3c2oc2ccccc23)c1 [Compound 2] | ◯ (0.1 wt. % or more soluble) |
| c1ccc(-n2c3ccccc3c3cc(-c4ccc(N(c5ccc6ccccc6c5)c5ccc6c(ccc7c8c(ccc9c%10ccc%11cc(N(c%12ccc(-c%13ccc%14c(c%13)c%13ccccc%13n%14-c%13ccccc%13)cc%12)c%12ccc%13ccccc%13c%12)ccc%11c%10n(-c%10ccccc%10)c98)n(-c8ccccc8)c67)c5)cc4)ccc32)cc1 [Compound 6] | ◯ (0.1 wt. % or more soluble) |
| c1ccc(N(c2ccc3cc(-c4cc5ccccc5o4)ccc3c2)c2ccc3c(ccc4c5cc6c(cc5n(-c5ccccc5)c34)c3ccc4cc(N(c5ccccc5)c5ccc7cc(-c8cc9ccccc9o8)ccc7c5)ccc4c3n6-c3ccccc3)c2)cc1 [Compound 13] | ◯ (0.1 wt. % or more soluble) |
| Cc1cccc(N(c2ccc3c(ccc4c5cc6c(cc5n(-c5ccccc5)c34)c3ccc4cc(N(c5cccc(C)c5)c5cccc7c5oc5ccccc57)ccc4c3n6-c3ccccc3)c2)c2cccc3c2oc2ccccc23)c1 [Compound 3] | ◯ (0.1 wt. % or more soluble) |
| Cc1cccc(N(c2ccc3c(ccc4c5c6c7ccc8cc(N(c9cccc(C)c9)c9cccc%10c9oc9ccccc9%10)ccc8c7n(-c7ccccc7)c6ccc5n(-c5ccccc5)c34)c2)c2cccc3c2oc2ccccc23)c1 [Compound 4] | ◯ (0.1 wt. % or more soluble) |
